Test results published in PMC7265341, “Quantifying CDK inhibitor selectivity in live cells” (Nature Communications, 2020).

Key:
Details in all cases: 10µM
CDK1/Cyclin E1 = CDK1/Cyclin E1 (Homo sapiens, UniProt P06493); experiment: NanoBRET live-cell target engagement, CDK1-NanoLuc/Cyclin E1 in HEK-293; format: binding
CDK3/Cyclin E1 = CDK3/Cyclin E1 (Homo sapiens, UniProt Q00526); experiment: NanoBRET live-cell target engagement, CDK3-NanoLuc/Cyclin E1 in HEK-293; format: binding
CDK11A/Cyclin L2 = target: T1, CDK11A/Cyclin L2 (Homo sapiens, UniProt Q9UQ88); experiment: NanoBRET live-cell target engagement, CDK11A-NanoLuc/Cyclin L2 in HEK-293; format: binding
T1 sequence (Q9UQ88 1-783): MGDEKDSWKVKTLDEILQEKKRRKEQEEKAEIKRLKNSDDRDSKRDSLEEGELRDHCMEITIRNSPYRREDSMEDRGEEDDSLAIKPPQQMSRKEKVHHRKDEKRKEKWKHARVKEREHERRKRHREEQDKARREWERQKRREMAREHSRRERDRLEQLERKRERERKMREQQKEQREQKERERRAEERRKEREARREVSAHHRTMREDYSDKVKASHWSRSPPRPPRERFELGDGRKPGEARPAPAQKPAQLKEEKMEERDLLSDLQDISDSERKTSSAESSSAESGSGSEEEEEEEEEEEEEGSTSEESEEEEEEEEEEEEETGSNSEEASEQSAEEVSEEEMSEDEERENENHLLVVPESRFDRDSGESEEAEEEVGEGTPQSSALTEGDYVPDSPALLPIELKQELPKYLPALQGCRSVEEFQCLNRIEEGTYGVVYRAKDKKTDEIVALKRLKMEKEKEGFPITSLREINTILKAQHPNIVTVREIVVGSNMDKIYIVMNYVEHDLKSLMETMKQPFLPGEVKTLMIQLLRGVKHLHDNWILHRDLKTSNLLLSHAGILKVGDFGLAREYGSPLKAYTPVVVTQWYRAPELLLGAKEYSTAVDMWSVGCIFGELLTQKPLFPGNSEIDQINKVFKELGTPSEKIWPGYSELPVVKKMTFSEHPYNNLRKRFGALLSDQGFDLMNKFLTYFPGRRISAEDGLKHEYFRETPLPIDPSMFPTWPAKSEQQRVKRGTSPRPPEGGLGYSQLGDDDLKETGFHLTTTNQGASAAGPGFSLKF

CDK15/Cyclin Y = CDK15/Cyclin Y (Homo sapiens, UniProt Q96Q40); experiment: NanoBRET live-cell target engagement, NanoLuc-CDK15/Cyclin Y in HEK-293; format: binding
Sequence of CDK15/Cyclin Y (Q96Q40 whole entry): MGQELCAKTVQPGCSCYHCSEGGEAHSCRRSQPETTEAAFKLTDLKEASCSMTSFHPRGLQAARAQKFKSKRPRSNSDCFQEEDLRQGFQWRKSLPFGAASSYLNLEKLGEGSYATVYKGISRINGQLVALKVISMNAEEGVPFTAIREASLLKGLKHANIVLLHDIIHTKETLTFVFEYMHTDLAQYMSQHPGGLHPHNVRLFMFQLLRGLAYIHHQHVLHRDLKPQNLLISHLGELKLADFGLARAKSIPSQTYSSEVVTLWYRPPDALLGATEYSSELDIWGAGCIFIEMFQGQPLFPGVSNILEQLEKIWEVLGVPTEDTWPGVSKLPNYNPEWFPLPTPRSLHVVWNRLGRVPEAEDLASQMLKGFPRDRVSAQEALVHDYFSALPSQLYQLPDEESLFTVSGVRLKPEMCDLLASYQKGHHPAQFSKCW
Sequence of CDK15/Cyclin Y (Q8ND76 whole entry partner): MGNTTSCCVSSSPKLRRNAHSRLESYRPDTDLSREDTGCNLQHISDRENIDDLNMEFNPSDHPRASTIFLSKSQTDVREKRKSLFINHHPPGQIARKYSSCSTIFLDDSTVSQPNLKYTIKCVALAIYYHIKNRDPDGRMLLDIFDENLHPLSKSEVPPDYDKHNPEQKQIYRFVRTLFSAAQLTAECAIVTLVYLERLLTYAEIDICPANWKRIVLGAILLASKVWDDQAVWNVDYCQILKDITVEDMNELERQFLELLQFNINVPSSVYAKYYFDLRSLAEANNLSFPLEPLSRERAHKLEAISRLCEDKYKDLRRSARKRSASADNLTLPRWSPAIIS

CDK20/Cyclin H = CDK20/Cyclin H (Homo sapiens, UniProt Q8IZL9); experiment: NanoBRET live-cell target engagement, NanoLuc-CDK20/Cyclin H in HEK-293; format: binding
CDK2/Cyclin E1 = CDK2/Cyclin E1 (Homo sapiens, UniProt P24941); experiment: NanoBRET live-cell target engagement, CDK2-NanoLuc/Cyclin E1 in HEK-293; format: binding
CDK9/Cyclin K = CDK9/Cyclin K (Homo sapiens, UniProt P50750); experiment: NanoBRET live-cell target engagement, NanoLuc-CDK9/Cyclin K in HEK-293; format: binding
CDK10/Cyclin L2 = CDK10/Cyclin L2 (Homo sapiens, UniProt Q15131); experiment: NanoBRET live-cell target engagement, CDK10-NanoLuc/Cyclin L2 in HEK-293
Sequence of CDK10/Cyclin L2 (Q15131 whole entry): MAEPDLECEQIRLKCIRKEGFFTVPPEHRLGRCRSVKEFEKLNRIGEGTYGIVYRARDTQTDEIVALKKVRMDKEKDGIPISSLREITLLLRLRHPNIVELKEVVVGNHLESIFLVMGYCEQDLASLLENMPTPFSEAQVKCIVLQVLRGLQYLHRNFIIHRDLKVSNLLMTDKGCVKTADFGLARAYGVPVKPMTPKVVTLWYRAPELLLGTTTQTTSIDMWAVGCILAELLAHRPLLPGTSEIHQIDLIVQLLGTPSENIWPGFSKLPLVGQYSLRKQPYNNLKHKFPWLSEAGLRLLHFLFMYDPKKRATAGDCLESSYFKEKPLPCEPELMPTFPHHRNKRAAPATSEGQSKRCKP

CDK18/Cyclin Y = CDK18/Cyclin Y (Homo sapiens, UniProt Q07002); experiment: NanoBRET live-cell target engagement, CDK18-NanoLuc/Cyclin Y in HEK-293; format: binding
CDK12/Cyclin K = CDK12/Cyclin K (Homo sapiens, UniProt Q9NYV4); experiment: NanoBRET live-cell target engagement, CDK12-NanoLuc/Cyclin K in HEK-293; format: binding
CDK4/Cyclin D1 = CDK4/Cyclin D1 (Homo sapiens, UniProt P11802); experiment: NanoBRET live-cell target engagement, NanoLuc-CDK4/Cyclin D1 in HEK-293; format: binding
CDK8/Cyclin C = CDK8/Cyclin C (Homo sapiens, UniProt P49336); experiment: NanoBRET live-cell target engagement, NanoLuc-CDK8/Cyclin C in HEK-293; format: binding
Sequence of CDK8/Cyclin C (P49336 whole entry): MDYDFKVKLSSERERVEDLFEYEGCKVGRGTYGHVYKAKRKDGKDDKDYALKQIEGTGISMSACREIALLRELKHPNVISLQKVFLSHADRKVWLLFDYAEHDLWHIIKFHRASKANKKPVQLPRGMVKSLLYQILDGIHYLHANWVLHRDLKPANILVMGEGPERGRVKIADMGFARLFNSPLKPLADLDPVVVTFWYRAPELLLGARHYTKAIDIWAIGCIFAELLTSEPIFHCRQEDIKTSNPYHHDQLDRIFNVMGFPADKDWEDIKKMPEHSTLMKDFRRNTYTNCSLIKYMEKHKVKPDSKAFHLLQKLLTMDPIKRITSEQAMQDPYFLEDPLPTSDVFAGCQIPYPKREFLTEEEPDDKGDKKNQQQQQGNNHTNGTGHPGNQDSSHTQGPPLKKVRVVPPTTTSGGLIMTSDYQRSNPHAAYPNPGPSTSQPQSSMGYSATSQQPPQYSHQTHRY
Sequence of CDK8/Cyclin C (P24863 whole entry partner): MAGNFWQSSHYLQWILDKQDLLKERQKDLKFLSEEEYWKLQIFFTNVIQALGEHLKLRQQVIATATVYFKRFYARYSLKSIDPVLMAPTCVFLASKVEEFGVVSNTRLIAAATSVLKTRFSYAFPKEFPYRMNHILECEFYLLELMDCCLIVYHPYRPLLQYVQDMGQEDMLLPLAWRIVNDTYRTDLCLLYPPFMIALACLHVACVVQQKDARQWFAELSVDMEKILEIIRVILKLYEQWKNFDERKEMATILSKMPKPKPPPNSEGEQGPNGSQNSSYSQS

CDK7 = CDK7 (Homo sapiens, UniProt P50613); experiment: NanoBRET live-cell target engagement, NanoLuc-CDK7 in HEK-293; format: binding
Sequence of CDK7 (P50613 whole entry): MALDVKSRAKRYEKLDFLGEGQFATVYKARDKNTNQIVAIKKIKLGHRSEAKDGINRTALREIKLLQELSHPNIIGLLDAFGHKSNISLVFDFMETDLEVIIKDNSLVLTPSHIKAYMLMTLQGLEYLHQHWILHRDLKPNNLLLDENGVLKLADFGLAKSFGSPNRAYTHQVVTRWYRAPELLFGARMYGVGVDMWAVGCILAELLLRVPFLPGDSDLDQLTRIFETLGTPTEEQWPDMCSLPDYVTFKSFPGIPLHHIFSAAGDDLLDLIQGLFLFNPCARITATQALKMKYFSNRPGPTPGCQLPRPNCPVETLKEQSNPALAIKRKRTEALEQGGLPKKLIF

CDK13/Cyclin K = CDK13/Cyclin K (Homo sapiens, UniProt Q14004); experiment: NanoBRET live-cell target engagement, CDK13-NanoLuc/Cyclin K in HEK-293; format: binding
Sequence of CDK13/Cyclin K (O75909 whole entry): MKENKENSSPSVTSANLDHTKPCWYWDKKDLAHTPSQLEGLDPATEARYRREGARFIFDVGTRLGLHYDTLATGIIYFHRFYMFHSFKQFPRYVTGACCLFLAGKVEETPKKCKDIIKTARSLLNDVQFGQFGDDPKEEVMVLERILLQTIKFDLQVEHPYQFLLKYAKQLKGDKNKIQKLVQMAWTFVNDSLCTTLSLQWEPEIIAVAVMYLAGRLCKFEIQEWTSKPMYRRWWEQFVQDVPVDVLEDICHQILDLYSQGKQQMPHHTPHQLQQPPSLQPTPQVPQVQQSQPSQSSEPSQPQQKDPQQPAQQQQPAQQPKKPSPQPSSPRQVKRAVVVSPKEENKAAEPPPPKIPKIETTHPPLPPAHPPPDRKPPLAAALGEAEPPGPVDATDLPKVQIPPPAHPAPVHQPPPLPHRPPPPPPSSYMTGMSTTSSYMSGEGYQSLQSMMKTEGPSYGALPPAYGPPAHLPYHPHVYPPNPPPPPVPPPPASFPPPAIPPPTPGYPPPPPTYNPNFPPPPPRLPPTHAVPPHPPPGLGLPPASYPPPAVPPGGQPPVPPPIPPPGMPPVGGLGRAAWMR
Sequence of CDK13/Cyclin K (Q14004 other isoform, or with tags, fused parts or gaps): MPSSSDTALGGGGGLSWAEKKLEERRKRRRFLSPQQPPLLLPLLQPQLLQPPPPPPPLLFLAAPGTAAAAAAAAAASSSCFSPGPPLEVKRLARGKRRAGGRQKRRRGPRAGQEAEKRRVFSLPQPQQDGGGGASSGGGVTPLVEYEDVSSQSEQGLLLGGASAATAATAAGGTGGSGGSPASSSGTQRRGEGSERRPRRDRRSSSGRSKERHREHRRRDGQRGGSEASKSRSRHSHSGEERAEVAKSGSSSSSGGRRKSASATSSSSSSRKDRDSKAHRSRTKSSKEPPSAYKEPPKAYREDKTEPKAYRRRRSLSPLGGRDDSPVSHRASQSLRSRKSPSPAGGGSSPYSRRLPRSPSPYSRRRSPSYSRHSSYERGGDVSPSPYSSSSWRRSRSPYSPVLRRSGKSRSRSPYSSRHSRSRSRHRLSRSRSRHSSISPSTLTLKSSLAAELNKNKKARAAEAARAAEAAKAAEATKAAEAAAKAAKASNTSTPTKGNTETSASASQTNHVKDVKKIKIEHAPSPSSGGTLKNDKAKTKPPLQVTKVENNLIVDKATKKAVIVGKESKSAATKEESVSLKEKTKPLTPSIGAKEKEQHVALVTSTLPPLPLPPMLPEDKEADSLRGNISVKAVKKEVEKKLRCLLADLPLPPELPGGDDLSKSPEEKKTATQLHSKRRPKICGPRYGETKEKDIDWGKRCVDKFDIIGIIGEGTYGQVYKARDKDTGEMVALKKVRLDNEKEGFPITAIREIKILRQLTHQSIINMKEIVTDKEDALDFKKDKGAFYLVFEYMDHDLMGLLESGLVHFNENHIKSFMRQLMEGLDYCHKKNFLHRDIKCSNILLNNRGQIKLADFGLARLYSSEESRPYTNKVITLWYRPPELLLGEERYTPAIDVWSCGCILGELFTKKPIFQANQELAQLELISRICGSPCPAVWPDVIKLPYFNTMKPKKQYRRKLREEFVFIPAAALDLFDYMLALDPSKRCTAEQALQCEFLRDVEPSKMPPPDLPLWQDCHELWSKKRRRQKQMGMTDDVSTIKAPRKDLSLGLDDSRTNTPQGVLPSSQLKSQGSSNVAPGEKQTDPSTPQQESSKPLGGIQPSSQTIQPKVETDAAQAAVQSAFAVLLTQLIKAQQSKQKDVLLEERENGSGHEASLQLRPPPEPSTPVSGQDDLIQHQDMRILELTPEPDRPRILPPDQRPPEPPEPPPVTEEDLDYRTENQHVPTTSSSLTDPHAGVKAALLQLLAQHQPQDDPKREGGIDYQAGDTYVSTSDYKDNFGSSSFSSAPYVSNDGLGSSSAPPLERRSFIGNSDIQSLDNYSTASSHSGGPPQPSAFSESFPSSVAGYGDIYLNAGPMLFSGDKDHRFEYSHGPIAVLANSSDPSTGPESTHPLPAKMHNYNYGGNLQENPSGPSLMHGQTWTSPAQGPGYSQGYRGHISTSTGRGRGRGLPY

CDK11B/Cyclin L2 = CDK11B/Cyclin L2 (Homo sapiens, UniProt P21127); experiment: NanoBRET live-cell target engagement, CDK11B-NanoLuc/Cyclin L2 in HEK-293; format: binding
CDK14/Cyclin Y = CDK14/Cyclin Y (Homo sapiens, UniProt O94921); experiment: NanoBRET live-cell target engagement, CDK14-NanoLuc/Cyclin Y in HEK-293; format: binding
CDK16/Cyclin Y = CDK16/Cyclin Y (Homo sapiens, UniProt Q00536); experiment: NanoBRET live-cell target engagement, CDK16-NanoLuc/Cyclin Y in HEK-293; format: binding
CDK6/Cyclin D1 = CDK6/Cyclin D1 (Homo sapiens, UniProt Q00534); experiment: NanoBRET live-cell target engagement, NanoLuc-CDK6/Cyclin D1 in HEK-293; format: binding
CDK17/Cyclin Y = CDK17/Cyclin Y (Homo sapiens, UniProt Q00537); experiment: NanoBRET live-cell target engagement, CDK17-NanoLuc/Cyclin Y in HEK-293; format: binding
CDK5/CDK5R1 = CDK5/CDK5R1 (Homo sapiens, UniProt Q00535); experiment: NanoBRET live-cell target engagement, CDK5-NanoLuc/CDK5R1 in HEK-293; format: binding
CDK19/Cyclin C = CDK19/Cyclin C (Homo sapiens, UniProt Q9BWU1); experiment: NanoBRET live-cell target engagement, NanoLuc-CDK19/Cyclin C in HEK-293

Sequence of CDK3/Cyclin E1 (Q00526 whole entry): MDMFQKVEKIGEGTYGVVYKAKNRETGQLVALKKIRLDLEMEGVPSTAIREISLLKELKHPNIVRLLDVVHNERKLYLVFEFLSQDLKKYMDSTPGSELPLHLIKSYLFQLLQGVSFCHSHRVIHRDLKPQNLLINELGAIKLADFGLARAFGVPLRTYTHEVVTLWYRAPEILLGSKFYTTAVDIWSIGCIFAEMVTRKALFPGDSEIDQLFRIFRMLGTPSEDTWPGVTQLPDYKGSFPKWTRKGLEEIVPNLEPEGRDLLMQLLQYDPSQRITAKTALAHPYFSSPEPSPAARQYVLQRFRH
Sequence of CDK3/Cyclin E1 (P24864 whole entry partner): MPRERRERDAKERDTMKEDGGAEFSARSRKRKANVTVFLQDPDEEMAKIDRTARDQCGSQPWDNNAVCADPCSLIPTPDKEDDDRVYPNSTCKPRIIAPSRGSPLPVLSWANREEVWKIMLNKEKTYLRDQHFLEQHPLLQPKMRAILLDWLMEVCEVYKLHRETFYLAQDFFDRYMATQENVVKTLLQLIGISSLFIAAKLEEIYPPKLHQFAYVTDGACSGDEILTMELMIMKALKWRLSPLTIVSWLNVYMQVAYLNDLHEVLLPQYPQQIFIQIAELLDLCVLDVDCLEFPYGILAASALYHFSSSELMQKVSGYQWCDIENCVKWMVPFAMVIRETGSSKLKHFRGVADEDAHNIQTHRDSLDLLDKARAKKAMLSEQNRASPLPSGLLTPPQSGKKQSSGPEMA

O=C1NCCc2[nH]c(-c3ccncc3)cc21 [PHA-767491]
CDK1/E1 Inhibition at 10µM (%) (CDK1/Cyclin E1; average of experiments): 20.9%
CDK1/E1 Inhibition at 10µM (%) (CDK1/Cyclin E1; independent experiment 1): 21.6%
CDK1/E1 Inhibition at 10µM (%) (CDK1/Cyclin E1; independent experiment 2): 20.1%
CDK3/E1 Inhibition at 10µM (%) (CDK3/Cyclin E1; average of experiments): 31.6%
CDK3/E1 Inhibition at 10µM (%) (CDK3/Cyclin E1; independent experiment 1): 30.4%
CDK3/E1 Inhibition at 10µM (%) (CDK3/Cyclin E1; independent experiment 2): 32.8%
CDK11a/L2 Inhibition at 10µM (%) (CDK11A/Cyclin L2; average of experiments): 24.0%
CDK11a/L2 Inhibition at 10µM (%) (CDK11A/Cyclin L2; independent experiment 1): 26.5%
CDK11a/L2 Inhibition at 10µM (%) (CDK11A/Cyclin L2; independent experiment 2): 21.5%
CDK15/Y Inhibition at 10µM (%) (CDK15/Cyclin Y; average of experiments): -2.1%
CDK15/Y Inhibition at 10µM (%) (CDK15/Cyclin Y; independent experiment 1): 6.2%
CDK15/Y Inhibition at 10µM (%) (CDK15/Cyclin Y; independent experiment 2): -10.5%
CDK20/H Inhibition at 10µM (%) (CDK20/Cyclin H; independent experiment 1): 1.2%
CDK20/H Inhibition at 10µM (%) (CDK20/Cyclin H; independent experiment 2): 0.755%
CDK2/E1 Inhibition at 10µM (%) (CDK2/Cyclin E1; average of experiments): 26.7%
CDK2/E1 Inhibition at 10µM (%) (CDK2/Cyclin E1; independent experiment 1): 26.7%
CDK2/E1 Inhibition at 10µM (%) (CDK2/Cyclin E1; independent experiment 2): 26.6%
CDK9/K Inhibition at 10µM (%) (CDK9/Cyclin K; average of experiments): 95.5%
CDK9/K Inhibition at 10µM (%) (CDK9/Cyclin K; independent experiment 1): 96.2%
CDK9/K Inhibition at 10µM (%) (CDK9/Cyclin K; independent experiment 2): 94.7%
CDK10/L2 Inhibition at 10µM (%) (CDK10/Cyclin L2; average of experiments): 11.0%
CDK10/L2 Inhibition at 10µM (%) (CDK10/Cyclin L2; independent experiment 1): 18.5%
CDK10/L2 Inhibition at 10µM (%) (CDK10/Cyclin L2; independent experiment 2): 3.5%
CDK18/Y Inhibition at 10µM (%) (CDK18/Cyclin Y; average of experiments): 28.3%
CDK18/Y Inhibition at 10µM (%) (CDK18/Cyclin Y; independent experiment 1): 21.8%
CDK18/Y Inhibition at 10µM (%) (CDK18/Cyclin Y; independent experiment 2): 34.7%
CDK12/K Inhibition at 10µM (%) (CDK12/Cyclin K; average of experiments): 18.3%
CDK12/K Inhibition at 10µM (%) (CDK12/Cyclin K; independent experiment 1): 19.8%
CDK12/K Inhibition at 10µM (%) (CDK12/Cyclin K; independent experiment 2): 16.8%
CDK4/D1 Inhibition at 10µM (%) (CDK4/Cyclin D1; average of experiments): 21.3%
CDK4/D1 Inhibition at 10µM (%) (CDK4/Cyclin D1; independent experiment 1): 22.1%
CDK4/D1 Inhibition at 10µM (%) (CDK4/Cyclin D1; independent experiment 2): 20.6%
CDK8/C Inhibition at 10µM (%) (CDK8/Cyclin C; average of experiments): 97.7%
CDK8/C Inhibition at 10µM (%) (CDK8/Cyclin C; independent experiment 1): 98.5%
CDK8/C Inhibition at 10µM (%) (CDK8/Cyclin C; independent experiment 2): 96.9%
CDK7 Inhibition at 10µM (%) (CDK7; average of experiments): 26.3%
CDK7 Inhibition at 10µM (%) (CDK7; independent experiment 1): 26.2%
CDK7 Inhibition at 10µM (%) (CDK7; independent experiment 2): 26.4%
CDK13/K Inhibition at 10µM (%) (CDK13/Cyclin K; average of experiments): 11.6%
CDK13/K Inhibition at 10µM (%) (CDK13/Cyclin K; independent experiment 1): 14.1%
CDK13/K Inhibition at 10µM (%) (CDK13/Cyclin K; independent experiment 2): 9.2%
CDK11b/L2 Inhibition at 10µM (%) (CDK11B/Cyclin L2; average of experiments): 42.2%
CDK11b/L2 Inhibition at 10µM (%) (CDK11B/Cyclin L2; independent experiment 1): 43.3%
CDK11b/L2 Inhibition at 10µM (%) (CDK11B/Cyclin L2; independent experiment 2): 41.0%
CDK14/Y Inhibition at 10µM (%) (CDK14/Cyclin Y; average of experiments): 13.9%
CDK14/Y Inhibition at 10µM (%) (CDK14/Cyclin Y; independent experiment 1): 16.7%
CDK14/Y Inhibition at 10µM (%) (CDK14/Cyclin Y; independent experiment 2): 11.1%
CDK16/Y Inhibition at 10µM (%) (CDK16/Cyclin Y; independent experiment 1): 25.1%
CDK16/Y Inhibition at 10µM (%) (CDK16/Cyclin Y; independent experiment 2): 16.6%
CDK6/D1 Inhibition at 10µM (%) (CDK6/Cyclin D1; average of experiments): 19.5%
CDK6/D1 Inhibition at 10µM (%) (CDK6/Cyclin D1; independent experiment 1): 12.0%
CDK6/D1 Inhibition at 10µM (%) (CDK6/Cyclin D1; independent experiment 2): 27.0%
CDK17/Y Inhibition at 10µM (%) (CDK17/Cyclin Y; average of experiments): 24.8%
CDK17/Y Inhibition at 10µM (%) (CDK17/Cyclin Y; independent experiment 1): 31.6%
CDK17/Y Inhibition at 10µM (%) (CDK17/Cyclin Y; independent experiment 2): 18.1%
CDK5/CDK5R1 Inhibition at 10µM (%) (CDK5/CDK5R1; average of experiments): 37.1%
CDK5/CDK5R1 Inhibition at 10µM (%) (CDK5/CDK5R1; independent experiment 1): 38.6%
CDK5/CDK5R1 Inhibition at 10µM (%) (CDK5/CDK5R1; independent experiment 2): 35.7%
CDK19/C Inhibition at 10µM (%) (CDK19/Cyclin C; average of experiments): 90.8%
CDK19/C Inhibition at 10µM (%) (CDK19/Cyclin C; independent experiment 1): 91.1%
CDK19/C Inhibition at 10µM (%) (CDK19/Cyclin C; independent experiment 2): 90.5%
